Test results published in patent US5525627A, “Esters of acyl carnitines with long-chain aliphatic alcohols and pharmaceutical compositions containing same having antimycotic activity” (Sigma-Tau Industrie Farmaceutiche Riunite S.p.A., priority 1992, dated 1996).

Experiments:
[1] = tested on: filamentous fungi; test: MIC / MFC for filamentous fungi, all strains; assay type: cell-based, Aspergillus, Fusarium, Mucor, Penicillium; conditions: versus susceptible strains; read-out: Mean MIC values
Source text: (§1) The following strains were used (the number of strains is in brackets): Aspergillus (5); Fusarium (1); Mucor (1); Penicillium (1).
(§2) The tested substances were: ST 712, ST 722, ST 982, ST 983, ST 1000, ST 1001, ST 1032, ST 1033, ST 1034, ST 1036, ST 1037, ST 1038, ST 1050, ST 1051, ST 1052, ST 1053. The assay medium was the same as the one used in the previous study. The conidia from 72-hour cultures in Sabouraud agar, collected by washing with Sabouraud medium and Tween 80 (one drop of Tween per 10 ml of medium), were utilized as inoculum (5.0×10^4 CFU/ml).
(§3) The assay was performed using the same procedure as described for yeast-like fungi.
(§4) Also the evaluation of MIC and MFC was as reported previously.

[2] = tested on: Candida albicans (ISS 1); test: MIC for yeast and yeast-like strains; assay type: cell-based; conditions: 48 hours, 35° C., read-out: Minimal Inhibitory Concentration (MIC)
Description: (§5) The following strains were used (the number of strains is in brackets): Candida (13); Criptococcus (2); Saccharormyces (1); Torulopsis (1).
(§6) Yeast Nitrogen Base supplemented with 0.15% asparagine and 1.0% glucose (as carbon source) was the medium utilized in the assays.
(§7) This medium was buffered with 0.165 M 2-(N-morpholino) propane sulfonic acid (MOPS), a non-chelating buffer.
(§8) Antimicrob. Agents Cheroother. Aug. 34.8:1542-1545).
(§9) The inoculum was prepared from an overnight broth culture (a 48-hour culture only for Cryptococcus) in Sabouraud broth and appropriately diluted to yield a final suspension containing approximately 5.0×10^6 Colony Forming Units per ml (CFU/ml), when compared to the Mc Farland's standard control (BRAY W. E., Clinical Laboratory Methods, 5th Ed. C. V. MOSBY, St. Louis, Mo, 1957).
(§10) After further diluting (1:50), a […] volume of such fungal suspensions and an equal volume of the substance solutions were distributed into each well of a microtiter plate (96 wells, round bottom). Such a procedure eventually allowed for an "in vitro" antimycotic activity assay utilizing final fungal inocula of approximately 5.0×10^4 CFU/ml.

[3] = tested on: Candida pseudotropicalis (EC 1); test: MIC for yeast and yeast-like strains; assay type: cell-based; conditions: Kluyveromyces marxianus; 48 hours, 35° C.; read-out: Minimal Inhibitory Concentration (MIC)
Description: as §5, §6, §7, §8, §9, §10

[4] = tested on: Candida guilliermondii (ISS 1); test: MIC for yeast and yeast-like strains; assay type: cell-based; conditions: Meyerozyma guilliermondii; 48 hours, 35° C.; read-out: Minimal Inhibitory Concentration (MIC)
Description: as §5, §6, §7, §8, §9, §10

[5] = tested on: Cryptococcus neoformans (ISS 1); test: MIC for yeast and yeast-like strains; assay type: cell-based; conditions: 48 hours, 35° C., read-out: Minimal Inhibitory Concentration (MIC)
Description: as §5, §6, §7, §8, §9, §10

[6] = tested on: Candida tropicalis (ISS 1); test: MIC for yeast and yeast-like strains; assay type: cell-based; conditions: 48 hours, 35° C., read-out: Minimal Inhibitory Concentration (MIC)
Description: as §5, §6, §7, §8, §9, §10

[7] = tested on: Candida parapsilosis (ISS 1); test: MIC for yeast and yeast-like strains; assay type: cell-based; conditions: Lodderomyces parapsilosis; 48 hours, 35° C.; read-out: Minimal Inhibitory Concentration (MIC)
Description: as §5, §6, §7, §8, §9, §10

[8] = tested on: Candida glabrata (ISS 1); test: MIC for yeast and yeast-like strains; assay type: cell-based; conditions: Nakaseomyces glabratus; 48 hours, 35° C.; read-out: Minimal Inhibitory Concentration (MIC)
Description: as §5, §6, §7, §8, §9, §10

[9] = tested on: Candida albicans (ATCC 2091); test: MIC for yeast and yeast-like strains; assay type: cell-based; conditions: ATCC2091, 48 hours, 35° C., read-out: Minimal Inhibitory Concentration (MIC)
Description: as §5, §6, §7, §8, §9, §10

[10] = tested on: Candida albicans (PG); test: MIC and MFC for yeast and yeast-like strains; assay type: cell-based; conditions: 48 hours, 35° C., read-out: Minimal Inhibitory Concentration (MIC)
Description: as §5, §6, §7, §8, §9, §10
(§11) The minimal fungicidal concentration was evaluated by spot-transferring onto Petri dishes, containing Sabouraud agar, 0.01-ml volumes of all the samples showing no visible fungal growth.

[11] = tested on: Mucor mucedo (ATCC 7941); test: MIC for filamentous fungi; assay type: cell-based; conditions: ATCC7941, read-out: Minimal Inhibitory Concentration (MIC)
Source text: as §1, §2, §3, §4

[12] = tested on: Aspergillus fumigatus (ATCC 28212); test: MIC for filamentous fungi; assay type: cell-based; conditions: ATCC28212, read-out: Minimal Inhibitory Concentration (MIC)
Source text: as §1, §2, §3, §4

[13] = tested on: Penicillium sp. (1302); test: MIC for filamentous fungi; assay type: cell-based; conditions: read-out: Minimal Inhibitory Concentration (MIC)
Source text: as §1, §2, §3, §4

[14] = tested on: Fusarium sp. (ISS 1); test: MIC for filamentous fungi; assay type: cell-based; conditions: read-out: Minimal Inhibitory Concentration (MIC)
Source text: as §1, §2, §3, §4

[15] = tested on: Aspergillus fumigatus (C/1); test: MIC for filamentous fungi; assay type: cell-based; conditions: read-out: Minimal Inhibitory Concentration (MIC)
Source text: as §1, §2, §3, §4

[16] = tested on: Aspergillus fumigatus (1/A); test: MIC for filamentous fungi; assay type: cell-based; conditions: read-out: Minimal Inhibitory Concentration (MIC)
Source text: as §1, §2, §3, §4

[17] = tested on: Aspergillus fumigatus (2/A); test: MIC for filamentous fungi; assay type: cell-based; conditions: read-out: Minimal Inhibitory Concentration (MIC)
Source text: as §1, §2, §3, §4

[18] = tested on: Aspergillus niger (ATCC 16404); test: MIC for filamentous fungi; assay type: cell-based; conditions: ATCC16404, read-out: Minimal Inhibitory Concentration (MIC)
Source text: as §1, §2, §3, §4

[19] = tested on: Torulopsis candida (D.S.); test: MIC for yeast and yeast-like strains; assay type: cell-based; conditions: Suzukiozyma candida; 48 hours, 35° C.; read-out: Minimal Inhibitory Concentration (MIC)
Description: as §5, §6
(§12) This medium was buffered with 0.165 M 2-(N-morpholino) propane sulfonic acid (MOPS), a non-chelating buffer. […]
as §9, §10

[20] = tested on: Saccharomyces cerevisiae (ATCC 7752); test: MIC for yeast and yeast-like strains; assay type: cell-based; conditions: ATCC7752, 48 hours, 35° C., read-out: Minimal Inhibitory Concentration (MIC)
Description: as §5, §6, §12, §9, §10

[21] = tested on: Candida albicans (A 54); test: MIC for yeast and yeast-like strains; assay type: cell-based; conditions: 48 hours, 35° C., read-out: Minimal Inhibitory Concentration (MIC)
Description: as §5, §6, §12, §9, §10

[22] = tested on: Cryptococcus neoformans (4711); test: MIC for yeast and yeast-like strains; assay type: cell-based; conditions: 48 hours, 35° C., read-out: Minimal Inhibitory Concentration (MIC)
Description: as §5, §6, §12, §9, §10

[23] = tested on: Candida krusei (ISS 1); test: MIC for yeast and yeast-like strains; assay type: cell-based; conditions: Pichia kudriavzevii; 48 hours, 35° C.; read-out: Minimal Inhibitory Concentration (MIC)
Description: as §5, §6, §12, §9, §10

[24] = tested on: Candida albicans (562); test: MIC for yeast and yeast-like strains; assay type: cell-based; conditions: 48 hours, 35° C., read-out: Minimal Inhibitory Concentration (MIC)
Description: as §5, §6, §12, §9, §10

[25] = tested on: Candida albicans (Ca 2); test: MIC for yeast and yeast-like strains; assay type: cell-based; conditions: 48 hours, 35° C., read-out: Minimal Inhibitory Concentration (MIC)
Description: as §5, §6, §12, §9, §10

[26] = tested on: Candida tropicalis (5705); test: MIC for yeast and yeast-like strains; assay type: cell-based; conditions: 48 hours, 35° C., read-out: Minimal Inhibitory Concentration (MIC)
Description: as §5, §6, §12, §9, §10

[27] = tested on: yeast-like fungi; test: MIC / MFC for yeast-like fungi, all strains; assay type: cell-based, Candida, Cryptococcus, Saccharomyces, Torulopsis; conditions: versus susceptible strains; read-out: Mean MIC values
Description: as §5, §6, §12, §9, §10, §11

[28] = tested on: Trichophyton rubrum (IHEM 4274); test: MIC for dermatophytic fungi; assay type: cell-based; conditions: 35° C., 96 hours, read-out: Minimal Inhibitory Concentration (MIC)
Description: (§13) The following strains were used: Trichophyton menthagrophytes ATCC 9533, Trichophyton rubrum IHEM 4274, Microsporum canis IHEM 3522, Epydermophyton floccosum IHEM 3495. The tested substances were: ST 722, ST 1033, ST 1037, ST 1050, ST 1051, ST 1052,. ST 1053.
(§14) The assay was performed following the same procedure described for the yeasts, by using 7-day fungi cultures grown at 30° C. in Potato Dextrose agar, and harvested with Sabouraud broth and Tween 80 (0.5%).
(§15) After washing with Yeast Nitrogen Base, supplemented with asparagine and glucose (as carbon source), the fungal suspension was fragmented using a tissue grinder until the largest clumps or aggregates were undetectable within the grinder. This fungal suspension was then appropriately diluted in YNB to yield a concentration of 2.0×10^5 infective particles/ml (small mycelium fragments, micro-and macroaleuriospores).
(§16) Volumes of 100 μl both of the fungal suspensions and substance solutions, two-fold serially diluted in assay medium, were distributed into each well of a microtiter plate (96 wells, round bottom), which was incubated at 35° C. for 96 hours.

[29] = tested on: Trichophyton menthagrophites (ATCC 9533); test: MIC for dermatophytic fungi; assay type: cell-based; conditions: ATCC9533, 35° C., 96 hours, read-out: Minimal Inhibitory Concentration (MIC)
Description: as §13, §14, §15, §16

[30] = tested on: Microsporum canis (IHEM 3522); test: MIC for dermatophytic fungi; assay type: cell-based; conditions: 35° C., 96 hours, read-out: Minimal Inhibitory Concentration (MIC)
Description: as §13, §14, §15, §16

[31] = tested on: Epidermophyton floccosum (IHEM 3495); test: MIC for dermatophytic fungi; assay type: cell-based; conditions: 35° C., 96 hours, read-out: Minimal Inhibitory Concentration (MIC)
Description: as §13, §14, §15, §16

[32] = tested on: dermatophytic fungi; test: MIC / MFC for dermatophytic fungi, all strains; assay type: cell-based, Trichophyton, Microsporum, Epidermophyton; conditions: versus susceptible strains
Description: as §13, §14, §15, §16

| Compound | MIC [1] [mg/L] | MIC [2] [mg/L] | MIC [3] [mg/L] | MIC [4] [mg/L] | MIC [5] [mg/L] | MIC [6] [mg/L] | MIC [7] [mg/L] | MIC [8] [mg/L] | MIC [9] [mg/L] | MIC [10] [mg/L] | MIC [11] [mg/L] | MIC [12] [mg/L] | MIC [13] [mg/L] | MIC [14] [mg/L] | MIC [15] [mg/L] | MIC [16] [mg/L] | MIC [17] [mg/L] | MIC [18] [mg/L] | MIC [19] [mg/L] | MIC [20] [mg/L] | further results |
| --- | --- | --- | --- | --- | --- | --- | --- | --- | --- | --- | --- | --- | --- | --- | --- | --- | --- | --- | --- | --- | --- |
| CCCCCCCCCCCOC(=O)C[C@H](C[N+](C)(C)C)OC(=O)CCCCCC [ST 1036] | 4.29 | 1.56 | 6.25 | 6.25 | 3.12 | 3.12 | 6.25 | 3.12 | 1.56 | 3.12 | 6.25 | 3.12 | 3.12 | 3.12 | 3.12 | 6.25 | 6.25 | 3.12 | 3.12 | 3.12 | MIC [21]: 1.56 mg/L; MIC [22]: 1.56 mg/L; MIC [23]: 1.56 mg/L; MIC [24]: 1.56 mg/L; MIC [25]: 1.56 mg/L; MIC [26]: 3.12 mg/L; MIC [27]: 2.84 mg/L |
| CCCCCCCCCCCCOC(=O)C[C@H](C[N+](C)(C)C)OC(=O)CC(C)C [ST 1037] | 6.64 | 3.12 | 6.25 | 6.25 | 1.56 | 3.12 | 3.12 | 3.12 | 1.56 | 3.12 | 12.5 | 6.25 | 6.25 | 3.12 | 6.25 | 6.25 | 6.25 | 6.25 | 3.12 | 3.12 | MIC [28]: 6.25 mg/L; MIC [29]: 12.5 mg/L; MIC [30]: 12.5 mg/L; MIC [31]: 25 mg/L; MIC [32]: 14.1 mg/L; MIC [21]: 1.56 mg/L; MIC [22]: 0.78 mg/L; MIC [23]: 1.56 mg/L; MIC [24]: 1.56 mg/L; MIC [25]: 1.56 mg/L; MIC [26]: 3.12 mg/L; MIC [27]: 2.8 mg/L |
| CCCCCCCCCCCCOC(=O)C[C@H](C[N+](C)(C)C)OC(=O)C(C)C [ST 1038] | 12.5 | 6.25 | 6.25 | 6.25 | 3.12 | 3.12 | 6.25 | 6.25 | 3.12 | 6.25 | 25 | 12.5 | 12.5 | 6.25 | 6.25 | 12.5 | 12.5 | 12.5 | 6.25 | 6.25 | MIC [21]: 3.12 mg/L; MIC [22]: 1.56 mg/L; MIC [23]: 3.12 mg/L; MIC [24]: 3.12 mg/L; MIC [25]: 1.56 mg/L; MIC [26]: 3.12 mg/L; MIC [27]: 4.4 mg/L |
